This passage reports IC50 results from patent US20260102501A1, “ANTI-CANCER NUCLEAR HORMONE RECEPTOR-TARGETING COMPOUNDS” (Nuvation Bio Inc., priority 2022, published 2026).

Test [1] relates to LNCap cells. In words: Cell viability assay (CellTiterGlo). As to conditions: Homo sapiens, 144 h, read-out: LNCap (IC50, nM). Format: cell-based.
Test [2] deals with T47D cells. In words: Cell viability assay (CellTiterGlo). The test is classed as cell-based. The following applies: Homo sapiens, 144 h, read-out: T47D (IC50, nM). For orientation: In ATP-based viability assays light output follows the ATP content of the culture.
For test [3], the system named is IEC6 cells. As to the kind of experiment: Cell viability assay (CellTiterGlo). As to conditions: Rattus norvegicus, IEC-6, 144 h, read-out: IEC-6 (IC50, nM).
Method: Cell viability assay: LNCap, 22Rv1, MCF7, MDAMB361, T47D, and IEC6 cells were seeded at a density of 500-2000 cells/well in 96 well plates, and a ‘T0’ (timepoint 0) was included along with the assay plate. The plates were then incubated at 37° C., 5% CO2 in a cell culture incubator overnight. On the next day, the ‘T0’ plate was assayed using CellTiterGlo (Promega, Inc) according to the manufacturer's instructions. The appropriate compounds were diluted in DMSO and added to the assay plate (final DMSO concentration of 0.1-0.2%) on the next day. The assay plates were incubated for 6 days at 37° C., 5% CO2. After the incubation period, the plates were assayed using CellTiterGlo (Promega, Inc) according to the manufacturer's instructions and luminescence was read on the En Vision plate reader. […] GraphPadPrism was used to analyze the data and determine GI50/IC50 values.
The target in test [4] is T1, ligand binding domain of the glucocorticoid receptor (HEK293 cells stably expressing) (Homo sapiens, UniProt P04150).
T1 sequence (P04150 524-758 limits assumed): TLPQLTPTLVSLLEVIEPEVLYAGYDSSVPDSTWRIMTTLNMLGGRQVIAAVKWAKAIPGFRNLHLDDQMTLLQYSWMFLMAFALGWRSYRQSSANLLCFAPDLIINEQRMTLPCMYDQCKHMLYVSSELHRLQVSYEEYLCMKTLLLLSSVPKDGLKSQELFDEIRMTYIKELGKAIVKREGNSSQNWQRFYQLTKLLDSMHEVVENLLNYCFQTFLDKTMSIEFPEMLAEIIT
In words: GR antagonism assay (luciferase reporter).

Test [5] deals with T2, GR (cytosol from IM-9 cells) (Homo sapiens, UniProt P04150).
T2 sequence (P04150 1-777): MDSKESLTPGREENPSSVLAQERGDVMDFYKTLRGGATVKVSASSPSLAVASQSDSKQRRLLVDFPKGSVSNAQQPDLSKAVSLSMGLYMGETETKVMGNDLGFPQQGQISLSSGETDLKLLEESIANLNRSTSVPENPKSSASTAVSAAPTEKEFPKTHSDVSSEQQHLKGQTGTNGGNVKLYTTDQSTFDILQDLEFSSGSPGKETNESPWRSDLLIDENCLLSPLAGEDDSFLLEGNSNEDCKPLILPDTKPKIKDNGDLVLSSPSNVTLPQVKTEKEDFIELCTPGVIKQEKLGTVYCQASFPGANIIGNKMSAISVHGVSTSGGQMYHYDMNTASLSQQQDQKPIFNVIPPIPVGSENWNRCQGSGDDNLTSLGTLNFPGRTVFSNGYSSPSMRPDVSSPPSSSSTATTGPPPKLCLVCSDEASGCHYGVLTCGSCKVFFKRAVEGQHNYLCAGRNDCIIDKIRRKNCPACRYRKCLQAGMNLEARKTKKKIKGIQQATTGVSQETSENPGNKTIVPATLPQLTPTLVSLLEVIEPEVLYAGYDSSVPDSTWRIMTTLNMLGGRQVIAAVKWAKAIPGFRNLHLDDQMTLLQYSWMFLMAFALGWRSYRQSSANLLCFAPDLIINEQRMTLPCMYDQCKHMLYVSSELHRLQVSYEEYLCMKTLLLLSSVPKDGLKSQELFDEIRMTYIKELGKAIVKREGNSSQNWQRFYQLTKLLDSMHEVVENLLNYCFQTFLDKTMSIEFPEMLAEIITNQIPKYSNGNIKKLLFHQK
As to the kind of experiment: GR binding assay (3H-Dexamethasone displacement).

In test [6] the target is T3, AR (cytosol from LnCaP cells) (Homo sapiens, UniProt P10275, T878A).
T3 sequence (P10275 1-920 T878A): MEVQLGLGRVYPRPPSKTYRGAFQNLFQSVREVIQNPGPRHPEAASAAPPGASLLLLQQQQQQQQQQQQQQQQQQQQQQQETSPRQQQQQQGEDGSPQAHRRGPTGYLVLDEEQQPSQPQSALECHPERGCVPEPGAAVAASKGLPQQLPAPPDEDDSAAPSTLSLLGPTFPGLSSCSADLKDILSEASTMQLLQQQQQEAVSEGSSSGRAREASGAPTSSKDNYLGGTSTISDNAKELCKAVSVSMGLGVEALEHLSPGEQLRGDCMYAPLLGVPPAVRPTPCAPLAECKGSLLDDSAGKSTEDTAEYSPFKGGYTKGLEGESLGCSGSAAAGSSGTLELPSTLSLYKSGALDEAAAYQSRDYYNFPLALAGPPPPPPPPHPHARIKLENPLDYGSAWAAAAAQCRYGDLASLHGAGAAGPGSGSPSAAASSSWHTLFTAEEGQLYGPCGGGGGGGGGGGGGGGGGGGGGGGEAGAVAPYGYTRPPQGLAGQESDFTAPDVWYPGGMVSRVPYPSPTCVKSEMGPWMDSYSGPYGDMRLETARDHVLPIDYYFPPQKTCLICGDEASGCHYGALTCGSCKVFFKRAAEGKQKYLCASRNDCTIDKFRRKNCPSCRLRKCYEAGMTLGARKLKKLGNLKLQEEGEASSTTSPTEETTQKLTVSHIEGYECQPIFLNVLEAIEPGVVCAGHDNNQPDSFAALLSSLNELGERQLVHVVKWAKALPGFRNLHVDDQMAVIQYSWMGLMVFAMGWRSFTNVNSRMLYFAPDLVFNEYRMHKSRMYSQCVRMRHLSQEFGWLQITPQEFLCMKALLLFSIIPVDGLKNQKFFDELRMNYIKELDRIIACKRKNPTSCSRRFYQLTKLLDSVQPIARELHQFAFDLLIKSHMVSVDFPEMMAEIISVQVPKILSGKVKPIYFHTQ
As to the kind of experiment: AR binding assay (3H-R1881 displacement).
Method: The plate was then centrifuged at 3000 rpm for 30 minutes at 4° C.

Test [7] has as its target T4, full-length androgen receptor (HEK293 cells stably expressing) (Homo sapiens, UniProt P10275).
T4 sequence (P10275 1-920): T3 sequence (P10275 1-920 T878A) with A878T
In words: AR antagonism assay (luciferase reporter).

Structures are written as SMILES. Where a chain is given by its changes, count along the chain named. A value given as a limit tells only on which side of the number the result lay.

On to `CC#C[C@]1(O)CC[C@H]2[C@@H]3CCC4=CC(=O)CCC4=C3[C@@H](c3ccc(N(C)CCCCCCN4CCN(C(=O)Oc5ccc6nc7c(cc6c5CN(C)C)Cn5c-7cc6c(c5=O)COC(=O)[C@]6(O)CC)CC4)cc3)C[C@@]21C` [Compound 29, (S)-10-((Dimethylamino)methyl)-4-ethyl-4-hydroxy-3,14-dioxo-3,4,12,14-tetrahydro-1H-pyrano[3′,4′:6,7]indolizino[1,2-b]quinolin-9-yl 4-(6-((4-((8S,11R,13S,14S,17S)-17-hydroxy-13-methyl-3-oxo-17-(prop-1-yn-1-yl)-2,3,6,7,8,11,12,13,14,15,16,17-dodecahydro-1H-cyclopenta[a]phenanthren-11-yl)phenyl)(methyl)amino)hexyl)piperazine-1-carboxylate], for which the half-maximal inhibitory concentration (IC50) was 10 to 100 nM in test [1]; 10 to 100 nM in test [2]; 101 to 1000 nM in test [3]; less than 10 nM in test [4]; less than 10 nM in test [5].

Turning to `CC[C@@]1(O)C(=O)OCc2c1cc1n(c2=O)Cc2c-1nc1cc(F)c(C)c3c1c2[C@@H](NC(=O)OCc1ccc(NC(=O)[C@H](CCCNC(N)=O)NC(=O)[C@@H](NCCCCCCN(C)c2ccc([C@H]4C[C@@]5(C)[C@@H](CC[C@]5(OC(C)=O)C(C)=O)[C@@H]5CCC6=CC(=O)CCC6=C54)cc2)C(C)C)cc1)CC3` [Compound 59], the IC50 lay within 10 to 100 nM in test [1]; 10 to 100 nM in test [2]; 101 to 1000 nM in test [6]; 101 to 1000 nM in test [7]; 10 to 100 nM in test [5].

In the case of `CC[C@@]1(O)C(=O)OCc2c1cc1n(c2=O)Cc2cc3c(CN(C)C)c(OC(=O)N(C)Cc4ccc(NC(=O)[C@H](CCCNC(N)=O)NC(=O)[C@@H](NCCCCCCN(C)c5ccc([C@H]6C[C@@]7(C)[C@@H](CC[C@]7(OC(C)=O)C(C)=O)[C@@H]7CCC8=CC(=O)CCC8=C76)cc5)C(C)C)cc4)ccc3nc2-1` [Compound No. 60], the IC50 in test [1] was greater than 1000 nM; in test [2] it was greater than 1000 nM; in test [6], 10 to 100 nM; in test [7], greater than 1000 nM; in test [5], less than 10 nM.

Take `CC[C@@]1(O)C(=O)OCc2c1cc1n(c2=O)Cc2cc3c(CN(C)C)c(OC(=O)N4CCN(CCCCCCNc5ccc([C@H]6C[C@@]7(C)[C@@H](CC[C@]7(OC(C)=O)C(C)=O)[C@@H]7CCC8=CC(=O)CCC8=C76)cc5)CC4)ccc3nc2-1` [Compound No. 61, (S)-10-((dimethylamino)methyl)-4-ethyl-4-hydroxy-3,14-dioxo-3,4,12,14-tetrahydro-1H-pyrano[3′,4′:6,7]indolizino[1,2-b]quinolin-9-yl 4-(6-((4-((8S,11R,13S,14S,17R)-17-acetoxy-17-acetyl-13-methyl-3-oxo-2,3,6,7,8,11,12,13,14,15,16,17-dodecahydro-1H-cyclopenta[a]phenanthren-11-yl)phenyl)amino)hexyl)piperazine-1-carboxylate]: the IC50 is 101 to 1000 nM in test [1]; 10 to 100 nM in test [2]; 10 to 100 nM in test [6]; 101 to 1000 nM in test [7]; less than 10 nM in test [5].

For orientation: IC50 means the point on the concentration scale where inhibition reaches its midpoint.
